Test results published in patent US7304073B2, “Method of treating myocardial ischemia-reperfusion injury using NF-kB inhibitors” (Wyeth, priority 2004, dated 2007).
“Also recorded” adds a separate entry of the source.

Columns and labels:
[1] = tested on: myocardial ischemia-reperfusion models; settings: cited from earlier work
[2] = tested on: perfused isolated male rat hearts; assay: Isolated rat heart ischemia-reperfusion (Langendorff perfusion)
Protocol: Male rats 3 months old were anesthetized with sodium-pentobarbital and hearts were removed and mounted on a Langendorff apparatus. In this paradigm isolated hearts were perfused through an aortic cannula with a modified Krebs-Henseleit buffer equilibrated with 95% O2 and 5% CO2 at a constant pressure of 58 mmHg. Hearts were maintained at 37° C. throughout the experiments and temperature was continuously monitored with an IT-18 thermocouple microprobe inserted into the left ventricle (PhysiTemp, Clifton, N.J.). Flow rate was monitored with a flow probe and small animal flow meter (T206) from Transonic Systems Incorporated, Ithaca, N.Y. Hearts were perfused for 5 minutes with no additions followed by perfusion with vehicle or test compound which were continuously perfused throughout the remaining steps of the experiments. After 20 minutes the hearts were exposed to 100 nM isoproterenol for 5 minutes followed by 15 minutes global ischemia which was achieved by turning off the perfusion pump. After ischemia, hearts were reperfused at a constant flow rate for 50 minutes. This flow rate was equivalent to the rate used before ischemia to maintain 58 mmHg.
To assess ischemic damage, the change in left ventricular diastolic pressure was continually monitored using a fluid filled latex balloon inserted into the left ventricle through the left atrium. The diastolic pressure was initially adjusted to 5 mmHg. The pressure signals were recorded with a Grass Polygraph.
The release of creatine kinase (CK) enzyme activity from the hearts was also measured as a marker of cardiac damage. Fractions of perfusate were collected before ischemia and every 5 minutes during reperfusion. CK enzyme activity released from the hearts was determined in the perfusate fractions using CK reagent as recommended by the supplier (Sigma Diagnostics, St. Louis, Mo.).

[3] = tested on: Adult ovariectomized female Sprague Dawley rats; assay: In vivo rat heart ischemia-reperfusion (left coronary artery occlusion), infarct size
Protocol: A rat in vivo model was used to evaluate effects of experimental compounds on ischemia-reperfusion in the left ventricle. Adult ovariectomized female Sprague Dawley rats (>6 weeks) were used. All experimental procedures were performed under general anesthesia with a combination of ketamine and xylazine. Rats were placed on a heating pad and ventilated using a rodent ventilator. The chest was clipped free of hair, disinfected with Betadine and rinsed with alcohol. A small incision was made through skin and underlying muscles between 4th and 5th ribs in the left chest. The ribs were gently spread and the heart was exposed. A surgical suture was placed under the left coronary artery. The artery was occluded by tightening the suture for 30 minutes to induce myocardial ischemia and then re-opened for the 2 hour reperfusion period. […] At the end of reperfusion, hearts were harvested, perfused with Evans Blue, sectioned and stained with 2,3,5-triphenyltetrazolium chloride. Each section was digitally imaged. Infarct size and area at risk were measured and statistically analyzed.

[4] = tested on: Ovariectomized female New Zealand White rabbits; assay: In vivo rabbit heart ischemia-reperfusion (left anterior descending coronary artery occlusion), infarct size
Protocol: Ovariectomized female New Zealand White rabbits were anesthetized with a mixture of xylazine (3 mg/kg) and ketamine (35 mg/kg) administered IM, followed by an IV injection of sodium pentobarbital (15 mg/kg). An endotracheal tube was inserted and animals were positive pressure ventilated with room air. A Millar catheter micro-tip pressure transducer was inserted through the left carotid artery and positioned above the aortic valves to monitor aortic blood pressure. A lead II electrocardiogram was monitored throughout the experiment. A left thoracotomy and pericardiotomy were performed. […] A silk suture was passed behind the left anterior descending coronary artery and secured against polyethylene tubing for 30 minutes (ischemic period). Regional myocardial ischemia was verified by cyanosis in the region of the occluded vessel and by ST-segment elevation like changes in the electrocardiogram. The hearts were then reperfused for 4 hours.
To determine infarct size the heart was removed, cannulated through the aorta and perfused with Krebs-Henseleit buffer followed by perfilsion with 1% triphenyltetrazolium chloride (TTC). The left anterior descending coronary artery was re-occluded with a suture and 0.25% Evans Blue was perfused through the heart. The heart was cut into transverse sections and the area of the left ventricle, area at risk and the infarct area were traced and analyzed using Adobe PhotoShop Software. The infarct size is expressed as a percentage of the area at risk.

[5] = tested on: uterus or breast; assay: Activity in the uterus or breast; settings: in contrast to the known effects of 17β-estradiol
[6] = 1 uM, isolated rat heart, following ischemia-reperfusion

Compound | protection in similar myocardial ischemia-reperfusion models [1] | effect on increase in left ventricular diastolic pressure in comparison to vehicle [2, 6] | effect on left ventricular developed pressure in comparison to vehicle [2, 6] | release of creatine kinase (CK) activity from hearts following ischemia ([2]; 1 uM, perfusate during reperfusion phase, versus vehicle) | increase in left ventricular diastolic pressure after ischemia-reperfusion ([2]; luM of compound, 15 minutes global ischemia, 50 minutes reperfusion, vehicle 29 mmHg) [mmHg] | infarct size ([3]; 1 mg/kg iv 5 minutes before reperfusion, 30 minutes ischemia, 2 hour reperfusion, Mean±SEM, vehicle 54.6±3.2% / 54.4±4.7%) [%] | effect on ischemia/reperfusion-induced myocardial infarction compared with vehicle ([3]; 1 mg/kg iv, ovariectomized female rats) | size of the area at risk relative to the area of the left ventricle ([4]; 1 mg/kg IV 30 minutes before induction of ischemia) | effect on infarct size in comparison to vehicle ([4]; 1 mg/kg IV 30 minutes before induction of ischemia, rabbit) | infarct size (ischemic area relative to the area at risk) ([4]; 1 mg/kg IV 30 minutes before ischemia, 30 minutes ischemia, 4 hours reperfusion, vehicle 59%) [%] | activity in the uterus or breast [5] | melting point [°C]
C[C@]12CC[C@@H]3c4ccc(O)cc4CC[C@H]3[C@@H]1CC[C@@H]2O [17β-estradiol] | protective | – | – | – | – | – | – | – | – | – | – | –
CC1c2cc(F)ccc2-c2ccccc2N1S(=O)(=O)c1ccc(O)cc1 (stereo not shown) [Example 3, 4-[(8-Fluoro-6-methylphenanthridin-5(6H)-yl)sulfonyl]phenol] | – | significantly attenuated; also recorded: cardioprotective activity | significantly attenuated; also recorded: cardioprotective activity | significantly reduced; also recorded: significant decreases; also recorded: cardioprotective activity | 11 | 32.6±5.2 | significantly less myocardial infarction; also recorded: cardioprotective activity | did not have an effect | significantly reduced infarct size; also recorded: cardioprotective activity | 39 | no activity | 188
COc1cc(OC)cc(N2CCN(C(=O)[C@](C)(C#N)[C@H](c3ccccc3OC)c3cccc4ccccc34)CC2)c1 [Example 4, (S)-3-[4-(3,5-dimethoxyphenyl)piperazin-1-yl]-2-[(S)-(2-methoxyphenyl)(1-naphthyl)methyl]-2-methyl-3-oxopropanenitrile] | – | – | – | – | – | – | – | – | – | – | – | 186 to 188
